These are literature values, as cited in patent US10874875B2, “Irradiation device” (Photocure ASA, priority 2009, dated 2020).

This data set concerns CIN2 or CIN3 or a persistent CIN1. As to conditions: 24 patients; local application in a thermogel formulation; illumination 17 minutes after 3-5 hours, laser 100 J/cm^2; second PDT offered for incomplete response; scored at 6 months after the first treatment.

As for `CCCCCCOC(=O)CCC(=O)CN` [5-ALA hexylester, 5-ALA hexyl ester], the complete response rate is on record as 63%.
